Results on two compounds are retold here after paper PMC4232510, “Identification of Functionally Important Residues of the Rat P2X4 Receptor by Alanine Scanning Mutagenesis of the Dorsal Fin and Left Flipper Domains” (PLoS ONE, 2014).

Assay [1] has as its target T1, rP2X4R P207A mutant (Rattus norvegicus, UniProt P51577, P207A).
T1 construct: expressed in transfected cells; host or cells: HEK293T
T1 sequence (P51577 1-388 P207A): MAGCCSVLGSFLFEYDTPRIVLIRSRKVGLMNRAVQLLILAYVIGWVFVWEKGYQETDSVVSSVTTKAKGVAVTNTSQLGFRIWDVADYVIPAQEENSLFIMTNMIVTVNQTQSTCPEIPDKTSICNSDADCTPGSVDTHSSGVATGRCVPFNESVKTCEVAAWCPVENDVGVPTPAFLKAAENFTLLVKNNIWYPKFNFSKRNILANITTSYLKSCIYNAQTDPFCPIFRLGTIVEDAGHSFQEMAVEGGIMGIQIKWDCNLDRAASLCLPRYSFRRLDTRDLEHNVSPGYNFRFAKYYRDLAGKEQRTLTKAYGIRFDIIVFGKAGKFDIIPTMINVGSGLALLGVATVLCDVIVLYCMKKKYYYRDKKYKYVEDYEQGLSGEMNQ
Nature of the assay: whole-cell patch clamp, HEK293T cells expressing mutant. In kind it is cell-based. On the technique in general: The patch-clamp technique gives a direct electrical read-out from membranes.

For assay [2], the target named is T2, rP2X4R N293A mutant (Rattus norvegicus, UniProt P51577, N293A).
T2 construct: expressed in transfected cells; host or cells: HEK293T
The description is as above. In kind it is cell-based.

Assay [3] has as its target T3, rP2X4R R203A mutant (Rattus norvegicus, UniProt P51577, R203A).
T3 construct: expressed in transfected cells; host or cells: HEK293T
The description is as above. The format is cell-based.

The subject of assay [4] is P2X3R N279A. Also noted: method as in PMID 21098022. The conditions noted are these: cited from earlier work.
The subject of assay [5] is P2X1R G288C. Further details: method as in PMID 17428985. The conditions noted are these: cited from earlier work.
Assay [6] deals with P2X1R G288A. Also noted: key: n.f.: non-functional mutants; ↑: mutant with significant increased EC50 in comparison to WT (values represent fold increase); ≈: close to WT receptor; D: affected time-constant of the desensitizing current response. The conditions noted are these: cited from earlier work.
In assay [7] the test system is P2X4R N287A. Further details: method as in PMID 17663752, PMID 15632318; key: n.f.: non-functional mutants; ↑: mutant with significant increased EC50 in comparison to WT (values represent fold increase); ≈: close to WT receptor; D: affected time-constant of the desensitizing current response. The conditions noted are these: cited from earlier work.
For assay [8], the system named is P2X3R T196A. Further details: method as in PMID 16226373; key: n.f.: non-functional mutants; ↑: mutant with significant increased EC50 in comparison to WT (values represent fold increase); ≈: close to WT receptor; D: affected time-constant of the desensitizing current response. The conditions noted are these: cited from earlier work.
Assay [9] deals with P2X4R V288A. Further details: method as in PMID 24943126. Particulars: cited from earlier work.
Setting [10] is: 100 µM ATP 60 s, biexponential fit.
Setting [11] is: decay after removal of 1 or 3 µM ATP, 3 µM IVM.

T2 sequence (P51577 whole entry N293A): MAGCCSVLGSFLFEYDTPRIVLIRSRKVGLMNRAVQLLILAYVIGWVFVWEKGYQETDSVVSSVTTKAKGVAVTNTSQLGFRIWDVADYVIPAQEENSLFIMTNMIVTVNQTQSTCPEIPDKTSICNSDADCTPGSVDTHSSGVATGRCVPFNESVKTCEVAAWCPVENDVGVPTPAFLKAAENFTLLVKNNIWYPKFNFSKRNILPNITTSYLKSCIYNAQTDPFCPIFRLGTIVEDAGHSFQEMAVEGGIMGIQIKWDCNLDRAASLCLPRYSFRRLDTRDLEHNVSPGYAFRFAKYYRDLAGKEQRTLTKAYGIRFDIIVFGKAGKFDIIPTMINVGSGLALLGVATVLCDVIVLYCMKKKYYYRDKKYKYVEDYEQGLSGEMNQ
T3 sequence (P51577 whole entry R203A): as the sequence (P51577 whole entry N293A) above, with R203A, A293N counted along it

In the case of `Nc1ncnc2c1ncn2[C@@H]1O[C@H](COP(=O)(O)OP(=O)(O)OP(=O)(O)O)[C@@H](O)[C@H]1O` [ATP], the τdes1 in assay [1] (setting [10]) is recorded as 0.7 ± 0.1 s. Also, the τdes2 in assay [1] (setting [10]) is given as 5.6 ± 0.2 s. Besides, the “A2 /(A1+A2)” value in assay [1] (contribution of τdes2, 100 µM ATP 60 s) is on record as 71 ± 2%. The compound also yielded an EC50 in assay [1] (naïve receptors, 2–5 s application) of 2100 ± 1100 nM. Besides, the τdes in [1] (weighted, 100 µM ATP 60 s) amounted to 4.1 ± 0.2 s. Moreover, the figures for the “Imax+IVM” value in assay [2] (ATP after 3 µM IVM 4-6 min) and in assay [3] (ATP after 3 µM IVM 4-6 min) were 2.0 ±0.5 nA and 2.9 ± 0.6 nA, respectively. Also, the “τoff +IVM” value was 2.8 ± 0.2 s in assay [2] (setting [11]) and 4.6 ± 0.3 s in [3] (setting [11]). Moreover, the “fold increase of EC50 for ATP in comparison to WT” value in [4] is “N279A: ↑20x[4]”; in [5], 10 x; in assay [9], “V288A: ↑2x[49]”. The “change in EC50 for ATP” value is “≈” in assay [6]; “N287A: ≈[10], [52]” in [7]; “T196A: ≈[54]” in [8].

`CC[C@H](C)[C@H]1O[C@]2(CC[C@@H]1C)C[C@@H]1C[C@@H](C/C=C(\C)[C@@H](O[C@H]3C[C@H](OC)[C@@H](O[C@H]4C[C@H](OC)[C@@H](O)[C@H](C)O4)[C@H](C)O3)[C@@H](C)/C=C/C=C3\CO[C@@H]4[C@H](O)C(C)=C[C@@H](C(=O)O1)[C@]34O)O2` [IVM, ivermectin]: in assay [1] (3 µM IVM 4-6 min vs IVM-untreated), the “Fold incr. Imax” value is on record as 1.5 ± 0.3 fold.

As usually defined, the EC50 is the concentration giving half of the maximal effect.
